Assay results taken from PubChem BioAssay AID248 (DTP/NCI, 2004).
Values joined by “and” are separate entries in the source; they are usually repeats but may differ in a detail not shown here. Equal values may be shown once. Inconclusive results and toxic doses are left out.

System: L1210 leukemia ip in BDF1 mice, survival T/C
Assay: NCI In Vivo Anticancer Drug Screen. Data for tumor model L1210 Leukemia (intraperitoneal) in B6D2F1 (BDF1) mice
Conditions: endpoint: mean survival time, higher = longer survival
How it was run: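 Transplantable tumor model; survival measured in treated vs vehicle control mice. Value = treated/control.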

## CC(=O)OCC1OC(n2ncc(=O)[nH]c2=O)C(OC(C)=O)C1OC(C)=O (centres undefined)
dose: 5.3 mg/kg/injection, schedule: Q01DX Z (oral), vehicle: carboxymethylcellulose (CMC)
  T/C: 122 % of control
dose: 8.0 mg/kg/injection, schedule: Q01DX Z (oral), vehicle: carboxymethylcellulose (CMC)
  T/C: 119 % of control
dose: 8.0 mg/kg/injection, schedule: Q03HX024 (ip), vehicle: other
  T/C: 104 % of control
dose: 8.0 mg/kg/injection, schedule: Q03HX024 (oral), vehicle: other
  T/C: 117 % of control
dose: 8.8 mg/kg/injection, schedule: Q01DX Z (ip), vehicle: carboxymethylcellulose (CMC)
  T/C: 114 % of control
dose: 10.0 mg/kg/injection, schedule: Q01DX Z (im), vehicle: carboxymethylcellulose (CMC)
  T/C: 121 % of control
dose: 11.66 mg/kg/injection, schedule: Q#B X Z (ip), vehicle: carboxymethylcellulose (CMC)
  T/C: 111 % of control
dose: 13.0 mg/kg/injection, schedule: Q01DX Z (ip), vehicle: carboxymethylcellulose (CMC)
  T/C: 118 % of control
dose: 15.0 mg/kg/injection, schedule: Q01DX Z (im), vehicle: carboxymethylcellulose (CMC)
  T/C: 122 % of control
dose: 15.0 mg/kg/injection, schedule: Q01DX Z (sc), vehicle: carboxymethylcellulose (CMC)
  T/C: 116 % of control
dose: 16.0 mg/kg/injection, schedule: Q03HX008 (ip), vehicle: other
  T/C: 103 % of control
dose: 16.0 mg/kg/injection, schedule: Q03HX016 (ip), vehicle: other
  T/C: 105 % of control
dose: 18.33 mg/kg/injection, schedule: Q#B X Z (ip), vehicle: carboxymethylcellulose (CMC)
  T/C: 113 % of control
dose: 20.0 mg/kg/injection, schedule: Q01DX Z (ip), vehicle: carboxymethylcellulose (CMC)
  T/C: 120 % of control
dose: 23.0 mg/kg/injection, schedule: Q01DX Z (im), vehicle: carboxymethylcellulose (CMC)
  T/C: 121 % of control
dose: 26.66 mg/kg/injection, schedule: Q#B X Z (ip), vehicle: carboxymethylcellulose (CMC)
  T/C: 116 % of control
dose: 31.0 mg/kg/injection, schedule: Q01DX Z (ip), vehicle: carboxymethylcellulose (CMC)
  T/C: 120 % of control
dose: 32.0 mg/kg/injection, schedule: Q03HX008 (ip), vehicle: other
  T/C: 102 % of control
dose: 32.0 mg/kg/injection, schedule: Q03HX016 (ip), vehicle: other
  T/C: 103 % of control
dose: 32.0 mg/kg/injection, schedule: Q03HX024 (ip), vehicle: other
  T/C: 118 % of control
dose: 32.0 mg/kg/injection, schedule: Q03HX024 (oral), vehicle: other
  T/C: 122 % of control
dose: 61.66 mg/kg/injection, schedule: Q#B X Z (ip), vehicle: carboxymethylcellulose (CMC)
  T/C: 120 % of control
dose: 62.0 mg/kg/injection, schedule: Q01DX Z (oral), vehicle: carboxymethylcellulose (CMC)
  T/C: 157 % of control
dose: 64.0 mg/kg/injection, schedule: Q03HX008 (ip), vehicle: other
  T/C: 108 % of control
dose: 64.0 mg/kg/injection, schedule: Q03HX016 (ip), vehicle: other
  T/C: 103 % of control
dose: 64.0 mg/kg/injection, schedule: Q04DX003 (ip), vehicle: other
  T/C: 103 % of control
dose: 64.0 mg/kg/injection, schedule: Q04DX003 (oral), vehicle: other
  T/C: 109 % of control
dose: 85.0 mg/kg/injection, schedule: Q01DX Z (im), vehicle: carboxymethylcellulose (CMC)
  T/C: 122 % of control
dose: 93.33 mg/kg/injection, schedule: Q#B X Z (ip), vehicle: carboxymethylcellulose (CMC)
  T/C: 124 % of control and 86 % of control
dose: 125.0 mg/kg/injection, schedule: Q01DX001 (ip), vehicle: carboxymethylcellulose (CMC)
  T/C: 102 % of control and 107 % of control
dose: 125.0 mg/kg/injection, schedule: Q01DX006 (iv), vehicle: carboxymethylcellulose (CMC)
  T/C: 118 % of control
dose: 125.0 mg/kg/injection, schedule: Q03DX Z (ip), vehicle: carboxymethylcellulose (CMC)
  T/C: 121 % of control
dose: 125.0 mg/kg/injection, schedule: Q07DX Z (ip), vehicle: carboxymethylcellulose (CMC)
  T/C: 110 % of control
dose: 128.0 mg/kg/injection, schedule: Q01DX001 (ip), vehicle: other
  T/C: 105 % of control
dose: 128.0 mg/kg/injection, schedule: Q03HX008 (ip), vehicle: other
  T/C: 109 % of control
dose: 128.0 mg/kg/injection, schedule: Q03HX016 (ip), vehicle: other
  T/C: 119 % of control
dose: 128.0 mg/kg/injection, schedule: Q04DX003 (ip), vehicle: other
  T/C: 110 % of control
dose: 128.0 mg/kg/injection, schedule: Q04DX003 (oral), vehicle: other
  T/C: 101 % of control
dose: 128.0 mg/kg/injection, schedule: Q08DX002 (ip), vehicle: other
  T/C: 101 % of control
dose: 166.66 mg/kg/injection, schedule: Q#B X Z (ip), vehicle: carboxymethylcellulose (CMC)
  T/C: 157 % of control
dose: 185.0 mg/kg/injection, schedule: Q01DX Z (sc), vehicle: carboxymethylcellulose (CMC)
  T/C: 121 % of control
dose: 250.0 mg/kg/injection, schedule: Q01DX001 (ip), vehicle: carboxymethylcellulose (CMC)
  T/C: 100 % of control and 103 % of control
dose: 250.0 mg/kg/injection, schedule: Q01DX Z (im), vehicle: carboxymethylcellulose (CMC)
  T/C: 161 % of control
dose: 250.0 mg/kg/injection, schedule: Q03DX Z (ip), vehicle: carboxymethylcellulose (CMC)
  T/C: 122 % of control
dose: 250.0 mg/kg/injection, schedule: Q07DX Z (ip), vehicle: carboxymethylcellulose (CMC)
  T/C: 115 % of control
dose: 256.0 mg/kg/injection, schedule: Q01DX001 (ip), vehicle: other
  T/C: 97 % of control
dose: 256.0 mg/kg/injection, schedule: Q04DX003 (ip), vehicle: other
  T/C: 106 % of control
dose: 256.0 mg/kg/injection, schedule: Q04DX003 (oral), vehicle: other
  T/C: 120 % of control
dose: 256.0 mg/kg/injection, schedule: Q08DX002 (ip), vehicle: other
  T/C: 96 % of control
dose: 280.0 mg/kg/injection, schedule: Q01DX Z (sc), vehicle: carboxymethylcellulose (CMC)
  T/C: 151 % of control
dose: 420.0 mg/kg/injection, schedule: Q01DX Z (sc), vehicle: carboxymethylcellulose (CMC)
  T/C: 108 % of control
dose: 450.0 mg/kg/injection, schedule: Q01DX010 (ip), vehicle: saline
  T/C: 116 % of control
dose: 500.0 mg/kg/injection, schedule: Q01DX001 (ip), vehicle: carboxymethylcellulose (CMC)
  T/C: 102 % of control and 113 % of control
dose: 500.0 mg/kg/injection, schedule: Q01DX Z (im), vehicle: carboxymethylcellulose (CMC)
  T/C: 150 % of control
dose: 500.0 mg/kg/injection, schedule: Q01DX Z (sc), vehicle: carboxymethylcellulose (CMC)
  T/C: 154 % of control
dose: 500.0 mg/kg/injection, schedule: Q03DX Z (ip), vehicle: carboxymethylcellulose (CMC)
  T/C: 121 % of control
dose: 500.0 mg/kg/injection, schedule: Q07DX Z (ip), vehicle: carboxymethylcellulose (CMC)
  T/C: 113 % of control
dose: 512.0 mg/kg/injection, schedule: Q01DX001 (ip), vehicle: other
  T/C: 104 % of control
dose: 512.0 mg/kg/injection, schedule: Q01DX009 (oral), vehicle: other
  T/C: 151 % of control
dose: 512.0 mg/kg/injection, schedule: Q04DX003 (ip), vehicle: other
  T/C: 106 % of control
dose: 512.0 mg/kg/injection, schedule: Q08DX002 (ip), vehicle: other
  T/C: 105 % of control
dose: 675.0 mg/kg/injection, schedule: Q01DX010 (ip), vehicle: saline
  T/C: 93 % of control
dose: 1000.0 mg/kg/injection, schedule: Q01DX001 (ip), vehicle: carboxymethylcellulose (CMC)
  T/C: 97 % of control and 122 % of control
dose: 1000.0 mg/kg/injection, schedule: Q01DX Z (im), vehicle: carboxymethylcellulose (CMC)
  T/C: 158 % of control
dose: 1000.0 mg/kg/injection, schedule: Q01DX Z (ip), vehicle: carboxymethylcellulose (CMC)
  T/C: 102 % of control
dose: 1000.0 mg/kg/injection, schedule: Q01DX Z (oral), vehicle: carboxymethylcellulose (CMC)
  T/C: 86 % of control
dose: 1000.0 mg/kg/injection, schedule: Q01DX Z (sc), vehicle: carboxymethylcellulose (CMC)
  T/C: 117 % of control
dose: 1000.0 mg/kg/injection, schedule: Q07DX Z (ip), vehicle: carboxymethylcellulose (CMC)
  T/C: 113 % of control
dose: 1014.0 mg/kg/injection, schedule: Q01DX010 (ip), vehicle: saline
  T/C: 100 % of control
dose: 1024.0 mg/kg/injection, schedule: Q01DX001 (ip), vehicle: other
  T/C: 101 % of control
dose: 1024.0 mg/kg/injection, schedule: Q08DX002 (ip), vehicle: other
  T/C: 106 % of control

## N#CCC[N+]1([O-])CCCC1C(=O)O (centres undefined)
dose: 100.0 mg/kg/injection, schedule: Q01DX001 (ip), vehicle: saline
  T/C: 103 % of control
dose: 200.0 mg/kg/injection, schedule: Q01DX001 (ip), vehicle: saline
  T/C: 101 % of control
dose: 400.0 mg/kg/injection, schedule: Q01DX001 (ip), vehicle: saline
  T/C: 103 % of control

## COC1CCCCC1SCSC1CCCCC1OC (centres undefined)
dose: 100.0 mg/kg/injection, schedule: Q01DX009 (ip), vehicle: saline with Tween-80
  T/C: 90 % of control
dose: 400.0 mg/kg/injection, schedule: Q01DX009 (ip), vehicle: saline with Tween-80
  T/C: 88 % of control

## C/C(=N\Nc1c(F)c(F)c(F)c(F)c1F)c1ccccc1
dose: 100.0 mg/kg/injection, schedule: Q01DX001 (ip), vehicle: saline with Tween-80
  T/C: 105 % of control
dose: 200.0 mg/kg/injection, schedule: Q01DX001 (ip), vehicle: saline with Tween-80
  T/C: 96 % of control
dose: 400.0 mg/kg/injection, schedule: Q01DX001 (ip), vehicle: saline with Tween-80
  T/C: 100 % of control
